Measurements from publication PMC10320002, “In vitro antiproliferative, anti-inflammatory effects and molecular docking studies of natural compounds isolated from Sarcocephalus pobeguinii (Hua ex Pobég)” (Frontiers in Pharmacology, 2023).
Values joined by “and” are separate entries in the source; they are usually repeats but may differ in a detail not shown here. Identical values can stand only once. Counter-ions that a name gives are not always drawn. Like-named read-outs stand apart in the source and are kept apart here.

Legend:
[1] = target: T1, 15-LOX (Glycine max, UniProt P08170); experiment: Soybean 15-LOX inhibitory assay (FOX); type: biochemical; conditions: linoleic acid 140 μM, pH 7.4, 25°C
T1 construct: purchased Merck, Darmstadt, Germany
T1 sequence (P08170 1-839): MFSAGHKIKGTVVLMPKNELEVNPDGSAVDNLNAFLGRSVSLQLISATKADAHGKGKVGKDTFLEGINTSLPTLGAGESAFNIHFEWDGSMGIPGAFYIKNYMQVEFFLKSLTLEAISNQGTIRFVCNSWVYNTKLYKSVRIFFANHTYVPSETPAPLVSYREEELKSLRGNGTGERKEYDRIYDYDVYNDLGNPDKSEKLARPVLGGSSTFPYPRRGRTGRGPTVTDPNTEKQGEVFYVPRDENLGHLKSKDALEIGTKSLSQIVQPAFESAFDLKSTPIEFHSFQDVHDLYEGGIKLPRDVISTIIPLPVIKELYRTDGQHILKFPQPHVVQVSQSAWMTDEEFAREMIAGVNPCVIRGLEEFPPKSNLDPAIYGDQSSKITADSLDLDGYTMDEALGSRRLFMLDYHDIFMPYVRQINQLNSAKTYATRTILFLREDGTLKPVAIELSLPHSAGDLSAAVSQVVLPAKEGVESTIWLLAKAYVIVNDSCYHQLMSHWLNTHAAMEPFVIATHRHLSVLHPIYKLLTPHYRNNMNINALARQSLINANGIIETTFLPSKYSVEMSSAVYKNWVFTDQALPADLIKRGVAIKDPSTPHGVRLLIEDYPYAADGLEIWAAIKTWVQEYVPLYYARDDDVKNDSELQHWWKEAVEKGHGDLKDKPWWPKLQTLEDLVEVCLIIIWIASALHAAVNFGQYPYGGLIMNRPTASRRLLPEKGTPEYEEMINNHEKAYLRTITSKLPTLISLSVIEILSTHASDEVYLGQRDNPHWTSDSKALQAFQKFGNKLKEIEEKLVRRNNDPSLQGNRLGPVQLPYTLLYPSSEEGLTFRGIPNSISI
Description: This assay is based on the formation of the Fe^3+/xylenol orange (FOX) complex with maximal absorption at 560 nm ([Pinto et al., 2007]). Forty microliters of 15-LOX (final concentration: 200 UI/mL) from Glycine max (Merck, Darmstadt, Germany) was incubated with 20 µL of tested samples (100, 50, 25, 10, and 5 μg/mL) at 25°C for 5 min, with DMSO at 10% (v/v) being used as negative control. Thereafter, 40 µL of linoleic acid (final concentration, 140 μM) prepared in Tris-HCl buffer (50 mM, pH 7.4) was added, and the plates were further incubated at 25°C for 20 min in the dark. The assay was terminated by adding 100 μL of FOX reagent [sulfuric acid (30 mM), xylenol orange (100 μM), ferrous II) sulfate (100 μM), dissolved in methanol/water (9:1)], followed by the incubation of the plates at 25°C for 30 min in the dark. Finally, the absorbance was measured at 560 nm on a microplate reader (Epoch, BioTek, Winooski, United States of America). The blanks were made in the same way as tested samples except that the substrate was added after the FOX reagent. The 15-LOX inhibitory activity was calculated by using the following formula: 15−LOX inhibitory activity %=100−Abs sample−Abs blank/Abs negative control−Abs blank×100 (1)

[2] = test system: A549 cells; experiment: MTT antiproliferation assay, A549; type: cell-based, human; conditions: for IC50: Homo sapiens, A549, 48 h, MTT
Description: (§1) Cancerous cell lines (MCF-7: human breast adenocarcinoma cells; HepG2: human hepatocellular carcinoma cells; Caco-2: human epithelial colorectal adenocarcinoma cells; A549: human epithelial lung adenocarcinoma cells), obtained from the American Type Culture Collection (ATCC) (Rockville, MD, United States of America), were cultured in Dulbecco’s Modified Eagle’s Medium (DMEM) high glucose (4.5 g/L) containing L-glutamine (4 mM) and sodium-pyruvate (Hyclone™) supplemented with 10% (v/v) fetal bovine serum (FBS) (Capricorn Scientific GmbH, South America), and incubated at 37°C with 5% CO2 in a humidified environment. African green monkey (Vero) kidney cells (also obtained from ATCC), a non-cancerous cell line, were grown in DMEM high glucose (4.5 g/L) containing L-glutamine (Lonza, Belgium) and supplemented with 5% FBS (Capricorn Scientific GmbH, South America) and 1% gentamicin (Virbac, RSA) in the same environment as cancer cells. The RAW 264.7 murine macrophage cells (obtained from ATCC) were cultured in DMEM high glucose (4.5 g/L) containing L-glutamine (Lonza, Belgium), supplemented with 10% FBS (Capricorn Scientific GmbH, South America) and 1% penicillin/streptomycin/fungizone (PSF) solution, and kept at 37°C in a 5% CO2 humidified environment.
(§2) The cancerous and non-cancerous cells were seeded at a density of 10^4 cells per well in 96-well microtiter plates, and they were incubated overnight at 37°C with 5% CO2 in a 5% CO2 humidified environment in order to allow the attachment of cells at the bottom of the plates. Then, the cells were exposed to increasing concentrations of compounds (100, 50, 25, 10 and 5 μg/mL) dissolved in dimethyl sulfoxide (DMSO) and further diluted in fresh culture medium. In this assay, the final concentration of DMSO in the culture medium was 0.5% used as negative control while doxorubicin hydrochloride (Pfizer, United States of America) was used as a positive control. The culture plates were incubated for 48 h at 37°C in a 5% CO2 humidified environment, after which the culture medium was discarded, and replaced by 200 µL of fresh culture medium with 30 µL of 3-(4,5-dimethylthiazol-2-yl)-2,5-diphenyl-2H-tetrazolium bromide (MTT) (5 mg/mL) dissolved in phosphate buffered saline ([Mosmann, 1983]). After 4 h of incubation, the medium was gently removed, and the formazan crystals were solubilized in 50 µL of DMSO. The absorbance was measured at 570 nm after shaking for 1 min on a microplate reader (Synergy Multi-Mode Reader, BioTek, Winooski, United States of America).
(§3) The cell viability rate was determined at each concentration of the compound as a percentage of cells treated with DMSO at 0.5% used as negative control. […] The selectivity index (Supporting Material) values were calculated for each compound by dividing the IC50 of non-cancerous cells by the IC50 of cancerous cells in the same units ([Mfotie Njoya et al., 2018]; [Mfotie Njoya et al., 2020]).

[3] = test system: Caco-2 cells; experiment: MTT antiproliferation assay, Caco-2; type: cell-based, human; conditions: for IC50: Homo sapiens, Caco-2, 48 h, MTT
Description: as §1, §2, §3

[4] = test system: NO production in LPS-stimulated RAW 264.7 cells; experiment: Nitric oxide production inhibitory assay (Griess) in LPS-stimulated RAW 264.7 cells; type: cell-based, murine; conditions: Mus musculus, RAW264.7; LPS (2 μg/mL), 24 h
Description: as §1
Nitric oxide (NO) production was evaluated in lipopolysaccharide (LPS)-stimulated RAW 264.7 cells by measuring the influence of tested compounds on the accumulation of nitrite, an indicator of NO in the cell supernatant, which can be detected with Griess reagent (Merck, Darmstadt, Germany). Briefly, the RAW 264.7 cells at their exponential growth phase were seeded at a density of 2×10^4 cells per well in 96 well-microtiter plates, and they were incubated overnight at 37°C in a 5% CO2 humidified environment to allow attachment. […] Then, culture medium containing LPS (2 μg/mL) was added to each well and further incubated for 24 h at 37°C in a 5% CO2 humidified environment. Thereafter, 100 μL of cell supernatant from each well were transferred into a new 96-well microtiter plate and an equal volume of Griess reagent was added according to protocol described by the manufacturer. The microtiter plate was incubated for 10 min in the dark at room temperature, and the absorbance of the mixture was measured at 550 nm on a microplate reader (Synergy Multi-Mode Reader, BioTek, Winooski, United States of America). The quantity of nitrite was determined from a sodium nitrite standard curve, and the percentage of NO production was calculated based on the ability of each tested sample to inhibit nitric oxide production by LPS-stimulated RAW 264.7 cells compared to the control (cells treated with LPS without samples which was considered as 100% NO production). Additionally, the cell viability of treated cells was determined by using the MTT assay as previously described ([Mosmann, 1983]).

[5] = test system: Vero cells; experiment: MTT antiproliferation assay, non-cancerous Vero cells; type: cell-based, African green monkey; conditions: Chlorocebus sabaeus, Vero; 48 h, MTT
Description: as §1, §2, §3

[6] = test system: HepG2 cells; experiment: MTT antiproliferation assay, HepG2; type: cell-based, human; conditions: for IC50: Homo sapiens, HepG2, 48 h, MTT; for SI values HepG2: IC50 of non-cancerous Vero cells divided by IC50 of HepG2
Description: as §1, §2, §3

[7] = test system: MCF-7 cells; experiment: MTT antiproliferation assay, MCF-7; type: cell-based, human; conditions: for IC50: Homo sapiens, MCF7, 48 h, MTT
Description: as §1, §2, §3

[8] = read-out: IC50 values 15-LOX (converted)

| SMILES | IC50 [1, 8] | IC50 [2] | IC50 [3] | IC50 [4] | IC50 [5] | IC50 [6] | IC50 [7] | IC50 ([1]; IC50 values 15-LOX) [µM] | SI values HepG2 [6] | SI values A549 ([2]; IC50 of non-cancerous Vero cells divided by IC50 of A549) | SI values Caco-2 ([3]; IC50 of non-cancerous Vero cells divided by IC50 of Caco-2) | SI values MCF7 ([7]; IC50 of non-cancerous Vero cells divided by IC50 of MCF-7) |
| --- | --- | --- | --- | --- | --- | --- | --- | --- | --- | --- | --- | --- |
| C[C@@H]1CC[C@]2(C(=O)O)CC[C@]3(C(=O)O)C(=CCC4[C@@]5(C)CC[C@H](O)C(CO)(CO)C5CC[C@]43C)C2[C@H]1C (stereo partly shown) [Compound 3, chletric acid] | 42.4 µM and 41.2 µM | > 187 µM and > 100 µg/mL | > 100 µg/mL and > 187 µM | > 100 µg/mL and > 187 µM | > 100 µg/mL and > 187 µM | 80 µg/mL and 150 µM | > 100 µg/mL and > 187 µM |  |  |  |  |  |
| O=c1c(O)c(-c2ccc(O)c(O)c2)oc2cc(O)cc(O)c12 [Quercetin, quercetin, reference compound] |  |  |  | 12.8 µg/mL and 42.5 µM |  |  |  |  |  |  |  |  |
| C[C@H]1[C@H](C)CC[C@]2(C(=O)O)CC[C@]3(C(=O)O)C(=CC[C@@H]4[C@@]5(C)CC[C@H](O)C(C)(C)[C@@H]5CC[C@]43C)[C@H]12 [Compound 8, quinovic acid] |  | 204 µM and 99.5 µg/mL | 81.6 µg/mL and 168 µM | 86 µg/mL and 177 µM | > 100 µg/mL and > 205 µM | 100 µg/mL and 205 µM | 98 µg/mL and 201 µM | 71.9 |  |  |  |  |
| C[C@H]1[C@H](C)CC[C@]2(C)CC[C@]3(C)C(=CC[C@@H]4[C@@]5(C)CC[C@H](O)C(C)(C)[C@@H]5CC[C@]43C)[C@H]12 [Compound 5, α-amyrin (3β-hydroxy-urs-12-en-3-ol)] | > 234 µM | 217 µM and 92.7 µg/mL | > 100 µg/mL and > 234 µM | > 100 µg/mL and > 234 µM | > 100 µg/mL and > 234 µM | 84.5 µg/mL and 198 µM | 82.8 µg/mL and 194 µM |  |  |  |  |  |
| CC1(C)CC[C@]2(CO)CC[C@]3(C)C(=CC[C@@H]4[C@@]5(C)CC[C@H](O)C(C)(C)[C@@H]5CC[C@]43C)[C@@H]2C1 [Compound 7, erythrodiol] | 147 µM | > 226 µM and > 100 µg/mL | > 100 µg/mL and > 226 µM | 95.6 µg/mL and 216 µM | 84 µg/mL and 190 µM | 73.9 µg/mL and 167 µM | > 100 µg/mL and > 226 µM |  | 1.13 |  |  |  |
| CC1(C)CC[C@]2(C)CC=C3[C@]4(C)CC[C@H]5C(C)(C)[C@@H](O)CC[C@]5(C)[C@H]4CC[C@@]3(C)[C@@H]2C1 [Compound 4, taraxerol] | > 234 µM | 177 µM and 75.6 µg/mL | > 100 µg/mL and > 234 µM | > 100 µg/mL and > 234 µM | > 100 µg/mL and > 234 µM | 54.2 µg/mL and 127 µM | 81.3 µg/mL and 191 µM |  |  |  |  |  |
| COc1cccc2c1C(=O)c1c(O)c3c(c(O)c1C2=O)C[C@@](O)(C(=O)CO)C[C@@H]3O[C@H]1C[C@H](N)[C@H](O)[C@H](C)O1 [Doxorubicin, doxorubicin hydrochloride, reference compound] |  | 0.71 ± 0.05 µM | 4.97 ± 0.74 µM |  | 4.85 ± 0.51 µM | 0.56 ± 0.05 µM | 1.09 ± 0.06 µM |  | 8.66 | 6.83 | 0.98 | 4.45 |
